For data set [1], the system named is S. typhimurium. In words: Minimum inhibitory concentration (MIC). Format: cell-based, Salmonella typhimurium. On the procedure: (§1) Microorganisms, media and growth conditions, agar well diffusion method for inhibition zone determination (IZ) and minimum inhibitory concentration (MIC) were performed according to the literature work.
(§2) The synthesized compounds were examined in vitro for their antimicrobial activity against Six standard microorganisms of ATCC, two Gram positive bacteria S. aureus and Listeria monocytogenes, three Gram negative bacteria Esherichia coli, Pseudomonas aeruginosa and Salmonella typhimurium and the fungus C. albicans. Bacteria were cultured in Luria-Bertani (LB) medium, while Sabouraud agar was used for culturing C. albicans and the assay conducted according to our previous techniques. The results were the average of 3 readings.

The subject of data set [2] is E. coli. In words: Agar well diffusion, inhibition zone. Format: cell-based, Esherichia coli. On the procedure: as §1, §2
The test system of data set [3] is S. typhimurium. In words: Agar well diffusion, inhibition zone. The data set is classed as cell-based, Salmonella typhimurium. How it is done: as §1, §2
A general note: Agar diffusion results depend on both activity and mobility in agar.

For data set [4], the system named is L. monocytogenes. The data set can be described thus: Minimum inhibitory concentration (MIC). The data set is classed as cell-based, Listeria monocytogenes. On the procedure:
as §1, §2

The subject of data set [5] is L. major amastigotes. In words: Antileishmanial assay, amastigotes. Format: cell-based, Leishmania major. To be noted: mean ± S.D. On the procedure: (§3) This assay was carried out according to the methods mentioned in our previously published article. L. major promastigotes were isolated locally from an indoor patient in 2016, liquid nitrogen was used for the preservation of the parasites, and BALB/c mice were used for the maintenance of the parasites and production of L. major amastigotes. Phenol red-free RPMI 1640 medium (Invitrogen, USA) with 10% FBS was used for the culture and in vitro evaluation, while amphotericin B (AmB) was used as reference drug.

Data set [6] has as its system C. albicans. The data set can be described thus: Agar well diffusion, inhibition zone. The data set is classed as cell-based. How it is done: as §1, §2
The test system of data set [7] is S. aureus. In words: Agar well diffusion, inhibition zone. The data set is classed as cell-based. How it is done:
as §1, §2

Data set [8] can be described thus: ABTS radical scavenging assay. The following applies: antiradical scavenging; mean ± S.D. How it is done:
(§4) Three methods were used for the assessing antioxidant properties of the selected compounds, which are 2.2-diphenyl-1-picrylhydrazyl (DPPH), 2.2’-azino-bis (3-ethylbenzothiazoline-6-sulphonic acid) (ABTS) radicals scavenging, and β-carotene linoleic acid bleaching assay. […] The control compound was butylated hydroxytoluene (BHT), which is a potent antioxidant.
ABTS radical scavenging activity was conducted by referring to the method of Re et al..
(§5) All the assays used for antioxidant determination (DPPH, ABTS, and β-carotene bleaching assay) were performed simultaneously three times in the same conditions. The results obtained in µM mL^−1 average of the three experiments.

In data set [9] the test system is L. major promastigotes. In words: Antileishmanial assay, promastigotes. Format: cell-based, Leishmania major. The following applies: mean ± S.D. On the procedure: as §3
Data set [10] is described as follows: β-Carotene linoleic acid bleaching assay. The following applies: β-carotene bleaching test; mean ± S.D. On the procedure:
as §4
β-Carotene bleaching test was conducted following the method described by Pratt’s.
as §5

The subject of data set [11] is T. gondii tachyzoites RH strain. In words: Antitoxoplasmal assay. Format: cell-based, Toxoplasma gondii. The following applies: mean ± S.D. How it is done:
This assay was carried out according to the methods mentioned in our previously published article. Vero cells line (ATCC® CCL81™, USA) were used for the serial passage and cultivation of T. gondii tachyzoites RH strain, complete RPMI 1640 medium with heat-inactivated 10% FBS was used for the culture and in vitro evaluation, while atovaquone (ATO) was used as reference drug. The results were expressed in IC50 of three independent readings, followed by the selectivity index (SI) calculation by dividing CC50 over IC50 of the same compound [56].

The target of data set [12] is TyrE (Agaricus bisporus, UniProt C7FF04). The data set is classed as biochemical.
Sequence of TyrE (C7FF04 1-392): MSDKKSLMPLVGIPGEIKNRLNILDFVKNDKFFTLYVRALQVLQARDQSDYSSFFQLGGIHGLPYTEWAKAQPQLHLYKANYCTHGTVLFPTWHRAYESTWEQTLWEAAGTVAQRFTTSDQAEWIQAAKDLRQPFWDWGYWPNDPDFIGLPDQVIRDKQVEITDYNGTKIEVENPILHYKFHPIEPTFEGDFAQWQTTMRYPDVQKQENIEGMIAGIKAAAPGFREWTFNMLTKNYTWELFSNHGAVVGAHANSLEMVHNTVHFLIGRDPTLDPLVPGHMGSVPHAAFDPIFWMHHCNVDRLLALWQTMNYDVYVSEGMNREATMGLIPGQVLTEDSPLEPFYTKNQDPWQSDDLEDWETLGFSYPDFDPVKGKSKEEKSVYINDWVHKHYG
The test system of data set [13] is L. monocytogenes. The data set can be described thus: Agar well diffusion, inhibition zone. The data set is classed as cell-based, Listeria monocytogenes. How it is done:
as §1, §2

In data set [14] the test system is C. albicans. The data set can be described thus: Minimum inhibitory concentration (MIC). The data set is classed as cell-based. On the procedure: as §1, §2
Data set [15] relates to S. aureus. In words: Minimum inhibitory concentration (MIC). Format: cell-based. On the procedure: as §1, §2
Data set [16] concerns P. aeruginosa. The data set can be described thus: Agar well diffusion, inhibition zone. The data set is classed as cell-based, Pseudomonas aeruginosa. How it is done: as §1, §2
Data set [17] concerns Vero cell. In words: In vitro cytotoxicity assay, MTT. The data set is classed as cell-based. The following applies: mean ± S.D. How it is done:
MTT colorimetric technique was carried out for cytotoxicity evaluation according to the methods mentioned in our previously published article. An amount of 96 well plates with complete were used for the culture of the cells. FLUOstar OPTIMA spectrophotometer was applied for colorimetric analysis and in vitro evaluation.

The nature of data set [18]: DPPH radical scavenging activity. The following applies: antiradical scavenging; mean ± S.D. On the procedure:
as §4
Briefly, various amounts of produced compounds were diluted with ultrapure water after being dissolved in dimethylsulfoxide (DMSO)/water (1/9; v/v) (1, 0.5, 0.250, 0.125, 0.0625, 0.03125 mg mL^−1). The samples were then combined with […] of a 4% (w/v) solution of the DPPH radical in ethanol. The combination was incubated for 30 min. at room temperature and in the dark. Spectrophotometric analysis was used to calculate the scavenging capacity by comparing the decrease in absorbance at 517 nm to a blank.
as §5
(DPPH is a stable violet radical that fades when it is reduced.)

Data set [19] deals with hepatocellular carcinoma cell lines (HepG-2). In words: In vitro anticancer proliferation (cytotoxicity) assay. Format: cell-based, human. To be noted: hepatocellular carcinoma cells; mean ± S.D. On the procedure:
(§6) The selected compound was investigated for its cytotoxic properties against HCT-116 and HepG-2 (cancer cell lines of ATCC, Rockville, MD, USA). Vinblastine was applied as reference drug. The assay was conducted according to the methods described by Mossman and our recently published data.

The test system of data set [20] is colon carcinoma cells (HCT-116). The description is as above. Format: cell-based, human. The following applies: mean ± S.D. On the procedure: as §6
The test system of data set [21] is all examined microorganisms. The data set can be described thus: Antimicrobial activity, summary over all examined microorganisms. Format: cell-based. How it is done: as §1, §2
Where [22] appears, read: against all examined microorganisms.

The values below come from article PMC9921063 (Molecules, 2023).

Take “5,6-Dimethyl-[1,3-(3,5)dimethyl-4-methyl)-benzimidazol-2-ylidene](p-cymene) ruthenium(II) chloride [Compound 3d]”: the MIC in data set [1] turned out to be 1.95 µM mL^−1; in data set [4], 3.9 µM mL^−1; in data set [14] it was 1.25 µM mL^−1; in data set [15], 1.95 µM mL^−1. Further, the Inhibition zone in [2] worked out at 29 mm; in data set [3], 27 mm; in data set [6], 27 mm; in [7], 26 mm; in data set [13], 28 mm; in data set [16] it was 27 mm. For the same substance, the “Amastigote IC50” value in data set [5] stood at 1.4 ± 0.3 µM mL^−1. Also, the “ABTS IC50” value in data set [8] is listed as 18.17 ± 3.0 µM mL^−1. The “Promastigotes IC50” value in data set [9] is on record as 0.32 ± 0.04 µM mL^−1. Also, the “β-Carotene IC50” value in data set [10] is given as 92.25 ± 11.9 µM mL^−1. Also, the “Toxoplasma IC50” value in data set [11] was 1.4 ± 0.1 µM mL^−1. In addition, the “TyrEI IC50” value in data set [12] is 24.95 ± 3.7 µM mL^−1. In addition, the “CC50 Toxicity (Vero Cell)” value in data set [17] was 1.8 ± 0.2 µM mL^−1. In addition, the “DPPH IC50” value in [18] came out at 32.18 ± 5.4 µM mL^−1. For the same substance, the “IC50 HepG-2” value in data set [19] worked out at 12.75 ± 1.7 µM mL^−1. Further, the “IC50 HCT-116” value in [20] worked out at 8.45 ± 0.9 µM mL^−1. The “IZ (inhibition zone)” value in data set [21] (setting [22]) is “over 25 mm”. Moreover, the “MIC (minimum inhibitory concentration)” value in data set [21] (setting [22]) is listed as less than 4 µM. Besides, the “Inhibition of the examined indicator organisms” value in data set [21] (all of the examined indicator organisms) is recorded as “inhibited”.
